Results reported in paper PMC12189671, “Antioxidant Activity and Cytotoxicity Evaluation of New Catechol Hydrazinyl-Thiazole Derivatives as Potential Protectors in Retinal Degenerative Processes” (Antioxidants, 2025).

Key:
[1] = system: rat microsomal membrane lipid peroxidation; experiment: Lipid peroxidation inhibition assay (LPI), 2-thiobarbituric acid method; assay type: biochemical; conditions: for IC50: ascorbic acid/Fe^2+ system, 37 °C, 45 min
Description: Rat liver microsomes were homogenized in saline, and the resulting homogenates were centrifuged at 9000× g for 20 min at 4 °C to remove cell debris. The supernatant underwent ultracentrifugation at 110,000× g for 40 min at 4 °C. The pelleted microsomal fraction was subsequently washed with saline via another round of ultracentrifugation under identical conditions. Thereafter, the pellet was resuspended in Tris-HCl buffer (pH 7.4) to achieve a concentration equivalent to 0.5 g liver per mL and was stored until further analysis (at −80 °C). For the assay, the microsomal preparation was thermally inactivated by incubation at 90 °C for 90 s, then homogenized again and diluted to a final concentration equivalent to 4 mM fatty acid equivalents. […] All mixtures were incubated at 37 °C under air with continuous shaking. […] This was followed by heating at 90 °C for 20 min and centrifugation at 3000 rpm for 15 min. As a result of the breakdown of unsaturated fatty acids, malondialdehyde reacts with the 2-thiobarbituric acid to produce a pink compound due to the formation of a Schiff base. The extent of lipid peroxidation was measured spectrophotometrically at 535/600 nm, which is proportional to the amount of the chromogen reaction product formed between 2-thiobarbituric acid and malondialdehyde. The determinations were performed in triplicate, and the standard deviation was within ±10% of the mean value.

[2] = system: ARPE-19 cells; experiment: Cell viability (resazurin) on ARPE-19; assay type: cell-based, human; conditions: ARPE-19, up to 50 µM
Source text: The ARPE-19 cell line was purchased from CLS Cell Lines Service GmbH (Eppelheim, Germany) and cultured in Dulbecco’s modified Eagle’s medium/F-12 (HAM) 1:1 (Biological Industries, Beit, Israel). The medium was supplemented with 10% fetal bovine serum (FBS) (Thermo Fisher Scientific, Waltham, MA, USA) and 1% penicillin-streptomycin (Biosera, Cholet, France). The cancerous cell line A549 was purchased from ATCC (Manassas, VA, USA) and cultivated in high-glucose Dulbecco’s modified Eagle’s medium (DMEM 4.5 g/L). The normal BJ cell line was also purchased from ATCC (Manassas, VA, USA) and was cultivated in low-glucose Dulbecco’s modified Eagle’s medium (DMEM 1 g/L). The media was supplemented in both cases with 10% FBS. Cells were cultured in T75 flasks and incubated at 37 °C in a humidified incubator with 5% CO2 supplementation. For maintenance, the media was changed every 2–3 days, and when the confluence of the flask reached approximately 85%, the cells were either subcultured or further used in the experiments.
ARPE-19 cells were seeded at a density of 2 × 10^4 cells/well and 1 × 10^4 cells/well (suspended in 100 µL) in 96-well plates for 24 h and 48 h, respectively. For the BJ cells, the seeding density was 0.5 × 10^4 cells/well and 0.3 × 10^4 cells/well for 24 h and 48 h, respectively, and for the A549 cells, 1.5 × 10^4 cells/well for 24 h and 0.75 × 10^4 cells/well for 48 h. As cells have different sizes and volumes, the different seeding densities were selected to reach a confluency of 80–90% by the end of the experiments. Cells were further exposed to the synthesized compounds for 24/48 h at concentrations ranging from 12.5 to 500 µM. After the incubation period, the exposure media was removed, the cells were washed with PBS, and further incubated with a 200 µM resazurin solution for 3 h as described in our previous report. The conversion of resazurin to the fluorescent resorufin compound by viable cells was measured at λexcitation = 550; λemission = 600, using SpectraMax iD3 (Molecular Devices, San Jose, CA, USA). The experiments were conducted in biological triplicate, each with a minimum of 3 technical replicates. The measured viability was expressed as relative values to the control (cells exposed only to the vehicle–culture medium containing 0.4% DMSO).

Row | SMILES | fold more active than Trolox in lipid peroxidation inhibition [1] | IC50 [1] [µM] | effect on ARPE-19 cell viability [2]
1 | C/C=C/C=N/Nc1nc(-c2ccc(O)c(O)c2)cs1.Cl [Compound 5a, 4-(2-(2-((1E,2E)-but-2-en-1-ylidene)hydrazineyl)thiazol-4-yl)benzene-1,2-diol hydrochloride] | approximately 7.5 fold | 3.34 | slight proliferative effect
2 | CC1=C(/C=C/C(C)=N/Nc2nc(-c3ccc(O)c(O)c3)cs2)C(C)(C)CCC1.Cl [Compound 5b, 4-(2-(2-((2E,3E)-4-(2,6,6-trimethylcyclohex-1-en-1-yl)but-3-en-2-ylidene) hydrazineyl)thiazol-4-yl)benzene-1,2-diol hydrochloride] | – | 12.9 | –
